Key:
Homo sapiens = organism: Homo sapiens; test: Concentration of inhibitor in human plasma required to double the activated partial thromboplastin time; type: functional
Prothrombin = Prothrombin (Homo sapiens, UniProt P00734); test: Inhibitory activity against thrombin IIa
Serine protease 1 = Serine protease 1 (Homo sapiens, UniProt P07477); test: Inhibitory activity against human trypsin
[1] = target: Tissue-type plasminogen activator (Homo sapiens, UniProt P00750); test: Inhibitory activity against Tissue plasminogen activator
Sequence of Tissue-type plasminogen activator (P00750 whole entry): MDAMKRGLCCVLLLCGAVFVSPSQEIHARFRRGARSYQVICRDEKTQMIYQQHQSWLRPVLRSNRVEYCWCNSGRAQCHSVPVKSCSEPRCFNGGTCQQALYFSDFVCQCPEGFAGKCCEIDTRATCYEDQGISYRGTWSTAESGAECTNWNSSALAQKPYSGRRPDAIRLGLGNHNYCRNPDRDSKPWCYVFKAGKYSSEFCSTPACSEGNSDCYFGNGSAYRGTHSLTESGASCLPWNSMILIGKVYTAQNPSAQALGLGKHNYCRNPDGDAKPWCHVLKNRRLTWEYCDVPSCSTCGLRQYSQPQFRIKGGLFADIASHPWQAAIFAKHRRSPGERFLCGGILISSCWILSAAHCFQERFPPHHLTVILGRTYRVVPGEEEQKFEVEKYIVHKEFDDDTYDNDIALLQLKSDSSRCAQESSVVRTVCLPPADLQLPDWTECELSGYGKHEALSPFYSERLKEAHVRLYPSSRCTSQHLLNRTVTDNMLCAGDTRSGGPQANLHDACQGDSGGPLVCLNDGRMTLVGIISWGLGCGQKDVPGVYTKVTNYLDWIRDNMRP

Sequence of Serine protease 1 (P07477 whole entry): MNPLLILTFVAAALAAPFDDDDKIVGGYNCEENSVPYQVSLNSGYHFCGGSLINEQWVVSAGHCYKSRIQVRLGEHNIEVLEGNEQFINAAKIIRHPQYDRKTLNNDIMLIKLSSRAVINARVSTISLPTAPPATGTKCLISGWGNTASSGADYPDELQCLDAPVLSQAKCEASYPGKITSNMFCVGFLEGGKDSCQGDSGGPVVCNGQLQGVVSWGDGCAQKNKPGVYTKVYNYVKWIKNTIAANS

Row | SMILES | 2*APTT (Homo sapiens) | Ki (Prothrombin) | Ki (Serine protease 1) | Ki [1]
1 | O=C1Cn2c(Cl)cnc(c2=O)N[C@@H](Cc2ccccc2)NCCCCCCOc2ccc(Cl)cc2CN1 | 3.17 µM | 0.13 nM | 240 nM | 
2 | O=C1Cn2c(Cl)cnc(c2=O)N[C@@H](Cc2ccccc2)CNCCCCCOc2ccccc2CN1 | 0.6 µM | 2.5 nM | 6700 nM | 360 nM
3 | O=C1Cn2c(Cl)cnc(c2=O)N[C@@H](Cc2ccccc2)CNCCCOc2ccc(Cl)cc2CN1 |  | 26 nM |  | 
4 | O=C1COc2ccc(Cl)cc2CNC(=O)[C@@H]2CCCN2C(=O)C(C2CCCCC2)NC(=O)CCN1 (some centres undefined) | 0.36 µM |  | 21500 nM | 8900 nM
5 | CCNC(=O)Oc1ccc(Cl)cc1CNC(=O)[C@@H]1CCCN1C(=O)[C@@H](N)C1CCCCC1 |  | 0.74 nM |  | 
6 | O=C1Cn2c(Cl)cnc(c2=O)N[C@@H](Cc2ccccc2)CNCCCCCOc2ccc(Cl)cc2CN1 | 1.22 µM | 0.05 nM | 80 nM | 6 nM
7 | N[C@H](C(=O)N1CCC[C@H]1C(=O)NCc1cc(Cl)ccc1Cl)C1CCCCC1 |  | 5 nM |  | 
8 | O=C1Cn2c(Cl)cnc(c2=O)N[C@@H](Cc2ccccc2)CNCCCNCCc2ccccc2CN1 | 0.47 µM |  | 2100 nM | 640 nM
9 | O=C1Cn2c(Cl)cnc(c2=O)N[C@@H](Cc2ccccc2)CNCCCCOc2ccc(Cl)cc2CN1 | 0.74 µM | 0.2 nM | 90 nM | 20 nM
10 | CN1CCOc2ccccc2CNC(=O)Cn2c(Cl)cnc(c2=O)N[C@@H](Cc2ccccc2)CNC(=O)C1 | 0.5 µM | 3 nM | 17000 nM | 3900 nM
11 | O=C1COc2ccc(Cl)cc2CNC(=O)[C@@H]2CCCN2C(=O)[C@@H](C2CCCCC2)NC(=O)CN1 | 0.69 µM | 2.9 nM | 9300 nM | 5600 nM
12 | O=C1Cn2c(Cl)cnc(c2=O)N[C@@H](Cc2ccccc2)CNCCCCNCc2ccccc2CN1 | 0.43 µM | 0.51 nM | 41000 nM | 165000 nM
13 | O=C1Cn2c(Cl)cnc(c2=O)N[C@@H](Cc2ccccc2)CNC(=O)OCCCCOc2ccc(Cl)cc2CN1 | 1.97 µM | 0.63 nM | 4000 nM | 
14 | O=C1COc2ccc(Cl)cc2CNC(=O)[C@@H]2CCCN2C(=O)[C@@H](C2CCCCC2)NC(=O)CCCCN1 | 0.36 µM | 1.3 nM | 7700 nM | 48000 nM
15 | CCN(CC)C(=O)CN[C@H](C(=O)N1CCC[C@H]1C(=O)NCc1cc(Cl)ccc1Cl)C1CCCCC1 |  | 0.31 nM |  | 
16 | O=C1Cn2c(Cl)cnc(c2=O)N[C@@H](Cc2ccccc2)CNC(=O)OC/C=C\COc2ccc(Cl)cc2CN1 | 0.78 µM | 0.06 nM | 110 nM | 6 nM
17 | O=C1Cn2c(Cl)cnc(c2=O)N[C@@H](Cc2ccccc2)CNCCOc2ccc(Cl)cc2CN1 |  | 560 nM |  | 
18 | CN1CCCCCOc2ccc(Cl)cc2CNC(=O)Cn2c(Cl)cnc(c2=O)N[C@@H](Cc2ccccc2)C1 | 1.89 µM | 0.02 nM | 40 nM | 3 nM
19 | O=C1Cn2c(Cl)cnc(c2=O)N[C@@H](Cc2ccccc2)CNCCOCCOc2ccccc2CN1 | 0.39 µM | 2.1 nM | 4600 nM | 3200 nM
20 | O=C1Cn2c(Cl)cnc(c2=O)N[C@@H](Cc2ccccc2)CNC(=O)OC/C=C/COc2ccc(Cl)cc2CN1 | 0.87 µM | 0.17 nM | 580 nM | 480 nM
21 | O=C1COc2ccc(Cl)cc2CNC(=O)[C@@H]2CCCN2C(=O)[C@@H](C2CCCCC2)NC(=O)CCCN1 | 0.31 µM | 0.4 nM | 5000 nM | 4300 nM
22 | O=C1Cn2c(Cl)cnc(c2=O)N[C@@H](Cc2ccccc2)CNCCOCCOc2ccc(Cl)cc2CN1 | 0.56 µM | 0.05 nM | 110 nM | 150 nM

— ChEMBL document CHEMBL1136169, “Design and synthesis of potent and selective macrocyclic thrombin inhibitors” (Bioorg Med Chem Lett, 2003)
